System: luciferase
Format: in vivo, BALB/c mice
Settings: LNP with the indicated cationic lipid; 3 μg Luciferase mRNA-LNP intradermal

Row | SMILES | delivery of mRNA (expression of luciferase measured by IVIS)
1 | CCCCCCCCC(CCCCCC)C(=O)OCCCCCCN(CCCCCCOC(=O)C(CCCCCC)CCCCCCCC)CCN(C)C (stereo not drawn) [Compound I-5] | effectively delivered
2 | CCCCCCCCC(=O)N(CCCN1CCCC1)C(CCCCCCCCC(=O)OCC(CCCC)CCCCCC)CCCCCCCCC(=O)OCC(CCCC)CCCCCC (stereo not drawn) [II-36] | effectively delivered
3 | CCCCCCCCC(=O)N(CCCN(C)C)C(CCCCCCCCC(=O)OCC(CCCC)CCCCCC)CCCCCCCCC(=O)OCC(CCCC)CCCCCC (stereo not drawn) [II-9] | effectively delivered
4 | CCCCCCCC(=O)N(CCCN(C)C)C(CCCCCCCCC(=O)OC(CCCCCC)CCCCCC)CCCCCCCCC(=O)OC(CCCCCC)CCCCCC [II-10] | effectively delivered
5 | CCCCCCCCC(CCCCCC)C(=O)OCCCCCCN(CCCCCO)CCCCCCOC(=O)C(CCCCCC)CCCCCCCC (stereo not drawn) [III-7] | effectively delivered
6 | CCCCCCCCC(=O)N(CCCN(C)C)C(CCCCCCCCC(=O)OC(CCCCCC)CCCCCC)CCCCCCCCC(=O)OC(CCCCCC)CCCCCC [II-11] | effectively delivered
7 | CCCCCCCCC(CCCCCC)COC(=O)CCCCCCCCC(CCCCCCCCC(=O)OCC(CCCCCC)CCCCCCCC)N(CCCN(C)C)C(=O)CCCCCCC (stereo not drawn) [II-12] | effectively delivered
8 | CCCCCCCCC(CCCCCC)C(=O)OCCCCCCCCCN(CCCCCCCCCOC(=O)C(CCCCCC)CCCCCCCC)CCN(C)C (stereo not drawn) [Compound I-6] | effectively delivered
9 | CCCCCCCCC(CCCCCC)C(=O)OCCCCCCN(CCCCO)CCCCCCOC(=O)C(CCCCCC)CCCCCCCC (stereo not drawn) [III-3] | effectively delivered

Source: patent US20190274968A1 (priority 2016, published 2019)
